Assay [1] has as its target Somatostatin receptor type 3 (Homo sapiens, UniProt P32745).
The target of assay [2] is Somatostatin receptor type 4 (Homo sapiens, UniProt P31391).
Assay [3] concerns the target Somatostatin receptor type 2 (Homo sapiens, UniProt P30874).

Structures are written as SMILES. Peptide text beside a SMILES is read from it.

Sequence of Somatostatin receptor type 3 (P32745 whole entry): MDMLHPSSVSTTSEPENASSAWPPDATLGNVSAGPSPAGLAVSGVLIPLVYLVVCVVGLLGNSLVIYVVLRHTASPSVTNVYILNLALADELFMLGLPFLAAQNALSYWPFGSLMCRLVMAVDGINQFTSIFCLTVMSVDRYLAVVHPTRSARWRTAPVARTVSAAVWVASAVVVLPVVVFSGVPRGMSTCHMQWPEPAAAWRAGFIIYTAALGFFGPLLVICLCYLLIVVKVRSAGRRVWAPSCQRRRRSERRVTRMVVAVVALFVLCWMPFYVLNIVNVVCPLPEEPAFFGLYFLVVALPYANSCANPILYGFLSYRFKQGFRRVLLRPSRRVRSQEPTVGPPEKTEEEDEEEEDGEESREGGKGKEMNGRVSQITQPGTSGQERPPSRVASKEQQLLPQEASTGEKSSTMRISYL
Sequence of Somatostatin receptor type 2 (P30874 whole entry): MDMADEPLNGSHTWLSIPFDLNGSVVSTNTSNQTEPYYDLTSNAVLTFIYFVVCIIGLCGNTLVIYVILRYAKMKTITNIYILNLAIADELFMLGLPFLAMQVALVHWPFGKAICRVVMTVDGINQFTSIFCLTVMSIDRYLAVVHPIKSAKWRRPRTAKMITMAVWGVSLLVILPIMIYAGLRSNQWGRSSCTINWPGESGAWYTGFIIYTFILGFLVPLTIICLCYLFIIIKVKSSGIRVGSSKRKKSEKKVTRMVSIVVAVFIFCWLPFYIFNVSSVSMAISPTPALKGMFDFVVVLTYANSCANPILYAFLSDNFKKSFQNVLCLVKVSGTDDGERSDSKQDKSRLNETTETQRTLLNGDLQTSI
Sequence of Somatostatin receptor type 4 (P31391 whole entry): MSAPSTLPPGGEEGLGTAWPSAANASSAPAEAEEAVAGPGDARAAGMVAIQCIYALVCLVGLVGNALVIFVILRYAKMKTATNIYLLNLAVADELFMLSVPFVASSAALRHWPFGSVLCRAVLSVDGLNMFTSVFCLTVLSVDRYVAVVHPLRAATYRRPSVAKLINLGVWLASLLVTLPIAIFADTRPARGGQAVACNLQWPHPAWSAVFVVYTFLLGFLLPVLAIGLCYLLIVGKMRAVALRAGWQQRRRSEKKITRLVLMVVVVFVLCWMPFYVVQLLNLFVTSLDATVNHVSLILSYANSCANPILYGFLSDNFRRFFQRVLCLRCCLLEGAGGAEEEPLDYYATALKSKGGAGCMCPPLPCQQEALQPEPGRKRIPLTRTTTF

In turn, `CC(C)[C@@H]1NC(=O)[C@H](CCCCN)NC(=O)[C@@H](Cc2c[nH]c3ccccc23)NC(=O)[C@H](Cc2ccc(O)cc2)NC(=O)[C@H](C)N(C)C(=O)[C@H](Cc2ccccc2)NC1=O` [CAS_3086456] registered a Ki in assay [1] of 268 nM. That is a sub-micromolar value.
In the case of `C[C@@H](O)[C@@H]1NC(=O)[C@H](Cc2ccc(O)cc2)NC(=O)[C@H]([C@@H](C)O)NC(=O)[C@H](CCCCN)NC(=O)[C@H](Cc2c[nH]c3ccccc23)NC(=O)[C@H](Cc2ccccc2)NC(=O)[C@H](Cc2ccccc2)NC(=O)[C@H](CC(N)=O)NC(=O)[C@H](CCCCN)NC(=O)CCCCC[C@@H](C(=O)O)NC(=O)[C@H](CO)NC1=O` [CGP-23996] (HELM PEPTIDE1{K.N.F.F.W.K.T.Y.T.S.[O=C(O)[C@H](CCCCCC(=O)[*:3])N[*:1]]}$PEPTIDE1,PEPTIDE1,1:R1-11:R3$$$V2.0), the Ki in assay [2] worked out at 4.7 nM; in assay [1], 0.6 nM; in assay [3] it was 1 nM.

The term Ki denotes the equilibrium dissociation constant of an inhibitor or competing ligand from its target.
